Source: US20020183305A1 (Schering Corporation, priority 2001, published 2002)

Test system: Hypercholesterolemic Golden Syrian hamsters
Assay: In vivo efficacy in cholesterol-fed hypercholesterolemic hamsters (plasma cholesterol, plasma triglyceride, hepatic cholesteryl ester)
[1] = cholesterol-fed hamsters, versus Control, Table 1

Method: Male Golden Syrian hamsters (Charles River Labs, Wilmington, MA) weighing between 100 and 125 g were fed Wayne rodent chow until study onset. At study onset (Day 1) animals were separated into groups (n=4-6/group) and fed chow supplemented with 0.5% by weight of cholesterol (Research Diets Inc., New Brunswick, NJ). The Control and Test compounds were administered once daily for 7 days, starting on Day 1 via oral gavage in 0.2 ml corn oil. Corn oil was used as the Control.
On Day 7, blood was collected into tubes containing ethylenediaminetetraacetic acid (EDTA), and plasma was prepared by low speed centrifugation at 40C. Liver samples (0.5 g) were taken for neutral lipid analyses.
Nonfasted plasma cholesterol levels were determined by a modification of the cholesterol oxidase method, in which the reagents were available in a kit form from Wako Pure Chemicals Industries, Ltd. (Osaka, Japan). […] Assays were carried out at 37° C. for 10 min, along with cholesterol standards (Sigma Chemical Co., St. Louis, Mo.) and the resultant red quinone pigment's absorbance was determined spectrophotometrically at 505 nm.
Samples of liver (0.5 g) were lipid extracted. Lipid extracts were dried under nitrogen into HPLC sample vials, resuspended in hexane and injected onto a Zorbax Sil (4.6×25 cm) silica column. […] Lipids were detected by absorbance at 206 nm and quantitated by computer integration (System Gold, Beckman) of elution profiles. […] Cholesteryl ester content of liver-derived samples was derived from a standard curve constructed using known amounts of cholesteryl oleate.

COc1ccc([C@@H]2[C@@H](CCCc3ccccc3)C(=O)N2c2ccc(OC)cc2)cc1 [Compound XII]
effect on accumulation of hepatic cholesteryl esters (in words) [1]: reduced | effect on plasma cholesterol levels (in words) [1]: reduced | Hepatic Cholesteryl Ester (male hamsters fed chow with 0.5% cholesterol, oral gavage in corn oil once daily for 7 days, liver Day 7, Compound XII 3 mg/kg/day, niacin 100 mg/kg/day): 12.75 ± 1.12 mg/g | Plasma Cholesterol (male hamsters fed chow with 0.5% cholesterol, oral gavage in corn oil once daily for 7 days, nonfasted plasma Day 7, Compound XII 3 mg/kg/day, niacin 100 mg/kg/day): 214 ± 13 mg/dL | Plasma Triglyceride (male hamsters fed chow with 0.5% cholesterol, oral gavage in corn oil once daily for 7 days, plasma Day 7, Compound XII 3 mg/kg/day, niacin 100 mg/kg/day): 200 ± 30 mg/dL
